These results are taken from US20250186403A1 (ARIZONA BOARD OF REGENTS ON BEHALF OF THE UNIVERSITY OF …, priority 2022, published 2025).

Where “and” joins values, the source holds several entries; their conditions need not be identical. Equal values may be shown once. Read-outs that look alike come from different tables or passages of the source. Bounds are passed on as bounds.

For one assay, the system named is Cne cells. As to the kind of experiment: Checkerboard assay with known antifungals. The assay is classed as cell-based, Cryptococcus neoformans. On the procedure:
After adding Cne cells, the plates were incubated for 48 h. Well contents were mixed by pipette, and absorbance was read at 630 nm. […] Based on the FIC, the combinatorial effects are decided as in Table 2.

Another assay relates to Cne-WT. Briefly: Fungistatic/fungicidal assay (MFC). In kind it is cell-based, Cryptococcus neoformans. The method, then:
The assay was performed by microdilution method as explained in materials and method. […] Cells in the wells were mixed by pipetting, and 30 μl of the culture taken from each well was plated onto SD agar plates. […] The MFC is the minimum drug concentration where there are no colonies. If the ratio of MFC/MIC≤4 is considered fungicidal.
Freshly grown Cne-WT colony on SD agar plate was resuspended in sterile water to give an OD600 of 0.1. This fungal suspension was further diluted at 1:500 in RPMI-MOPS media. A volume of 100 μl of the final cell suspension was added to each well in the assay plates. Additionally, 100 μl of final cell suspension was plated onto the SD agar plate to examine the actual cell count; and colonies were counted after 3 days. The assay plates were incubated at 30° C. for 48 h in a humidified incubator. The culture wells were mixed with micropipette tips, and 20 μl of the culture along with 70 μl RPMI-MOPS was plated onto the SD agar plates (100 mm) and incubated at 30° C. for 72 h before counting the colonies. […] The ratio of MFC/MIC≤4 was considered fungicidal and >4 as fungistatic.

For a further assay, the system named is Cne-WT and Cne-Mut. Briefly: Resazurin-based HTS growth assay, dose-response IC50. As to conditions: 24 h. The assay is classed as cell-based, Cryptococcus neoformans. On the procedure:
HTS assay: A resazurin-based growth assay was developed for primary screening, employing two strains of Cne, the Cne-WT with natural intein and Cne-Mut, the mutant strain without intein. The assay was first standardized in 96 well formats and later optimized for 384 well plates. The HTS was done at ICCB-Longwood screening facility, Harvard University, Boston, USA. For HTS, the fungal cells were grown in SD broth overnight and diluted in SD broth to an optical density (OD) 0.5 at 600 nm. The cell suspension is further diluted 1:10 in RPMI 1640 media with 0.165 M MOPS, 2% glucose (RPMI-MOPS) so that the final OD will be 0.05. […] The conversion of resazurin to resorufin by live cells were estimated by reading fluorescence at Ex 550 nm and Em 590 nm using a plate reader (EnVision, Perkin Elmer). Additionally, the absorbance was also read at 600 nm using the plate reader (EnVision, Perkin Elmer). […] The ratio of fluorescence reading in Cne-WT and Cne-Mut was used to advance positive compounds.
Concentration series (0.02 to 50 µM) of test compounds and equalizing volume of DMSO were dispensed using a liquid handler (D300 e, Hewlett Packard) to the 384 well plates. Following the addition of Cne cell suspension, the assay plates were incubated for 24 h, and fluorescence readings of resorufin were taken as explained for single concentration screening.

Another assay concerns C. gattii (NIH444). As to the kind of experiment: MIC by microdilution method. The assay is classed as cell-based. As to conditions: Cryptococcus gattii, visual, 48 h, 30° C. The method, then: (§1) Serial double dilution of the CMN was done in the RPMI-MOPS medium. Freshly grown fungal culture from the SD agar plate was resuspended in sterile water and diluted to get 0.1 OD at 600 nm. […] The plates were incubated at 30° C. for 48 h. Plates were checked for growth by visual observation. For Afu, resazurin was added to 44 µM and incubated for 12 h at 37° C. before noting a change in color from blue to pink by live cells. MIC is defined as the minimum concentration at which there is no growth when observed visually.

For assay [1], the system named is C. neoformans (Cne-Mut), inteinless mutant strain. Briefly: MIC by microdilution method. In kind it is cell-based. As to conditions: Cryptococcus neoformans, 48 h. The method, then: as §1
For orientation: Broth dilution looks for growth in wells or tubes with falling amounts of substance.

For the next assay, the system named is C. neoformans (Cne-WT). Briefly: MIC by microdilution method. As to conditions: Cryptococcus neoformans, 48 h. The assay is classed as cell-based. The method, then:
as §1

In a further assay the test system is C. amylolentus. As to the kind of experiment: MIC by microdilution method. The assay is classed as cell-based. The method, then: as §1

Regarding `CNc1ccc2oc(C[C@H]3O[C@@]4(CC[C@H]3C)O[C@H]([C@H](C)C(=O)c3ccc[nH]3)[C@H](C)C[C@H]4C)nc2c1C(=O)O` [CMN, calcimycin], the MIC (usually the least concentration at which growth counts as inhibited) is 1.31 µg/mL with Cne cells (Cryptococcus neoformans, 48 h, read-out: MIC Alone); 1.5 µg/mL and 3 µM in the assay with C. gattii (NIH444); 25.1 µg/mL and 48 µM in assay [1]; 1.5 µg/mL against C. neoformans (Cne-WT); 3 µM with C. neoformans (Cne-WT) (Cne-WT, visual, 30° C., read-out: MIC); > 26.1 µg/mL and > 50 µM against C. amylolentus (C. amylolentus, visual, 48 h, 30° C.). In addition, the “MIC Comb” value stood at 0.65 µg/mL with Cne cells (combination CMN + 5-Fluorocytosine, well D2); 0.33 µg/mL with Cne cells (combination CMN + Amphotericin B, well E6); 0.33 µg/mL with Cne cells (combination CMN + Itraconazole, well E4); 0.65 µg/mL in the assay with Cne cells (combination CMN + Voriconazole, well D4). For the same compound, in the assay on Cne-WT, the “nature of inhibition (fungistatic/fungicidal)” value is recorded as “fungistatic (>4 as fungistatic)”. Moreover, in the assay with Cne-WT (Cryptococcus neoformans, 48 h culture, plated, colonies day 3, read-out: MFC (minimum fungicidal concentration)), the MFC was above 26 µg/mL. Besides, the “difference in IC50 (Cne-Mut vs Cne-WT)” value in the assay on Cne-WT and Cne-Mut is given as 2.5 fold. Moreover, the growth inhibition result in the assay with C. amylolentus (natural inteinless cryptococcal sp. Cam) is “no inhibition was observed”.
